Target: mushroom tyrosinase
Assay: spectrophotometric dopachrome assay (L-DOPA substrate, […] nm)
Type: biochemical

C=C1C(=O)OC2C=C(C)CC3C=C(CCC=C(C)CCC12)C(=O)O3 (stereo not shown) [ovatodiolide] gave an IC50 of 253 µM.

Reference: publication PMC3382824, “Antioxidative Characteristics of Anisomeles indica Extract and Inhibitory Effect of Ovatodiolide on Melanogenesis” (2012)
